Several values for one entry are separate records, joined by “and”; a condition that tells them apart may be missing. Equal values may be shown once.

One test relates to oral mucositis. As to the kind of experiment: Acute radiation model of oral mucositis in hamsters. It is filed as in vivo, Male Golden Syrian hamsters. The settings on record: day -1 to day 27; for weight change following irradiation: 40 Gy on day 0, DHEA-cyclodextrin complex; for daily mucositis scores vs saline control: score scale 0-5. The source says: The acute radiation model in hamsters (see, e.g., Sonis et al., 2000) has proven to be an accurate, efficient and cost-effective technique to provide a preliminary evaluation of anti-mucositis compounds. The course of mucositis in this model is well defined and results in peak ulceration scores approximately 14-16 days following radiation. The acute model has been used to study specific mechanistic elements in the pathogenesis of mucositis. Molecules that show efficacy in the acute radiation model may be further evaluated in the more complex models of fractionated radiation, chemotherapy, or concomitant therapy. In this example, an acute radiation dose of 40 Gy on day 0 was administered and clinically significant mucositis was observed around day 14.
Animals. Male Golden Syrian hamsters were randomly and prospectively divided into six (6) treatment groups prior to irradiation as follows:
Hamsters were given an acute radiation dose directed to their oral mucosa. Test materials were applied by injection (once per day) or by oral dosing (either once or twice per day. Oral administrations were done using feeding needles. Dosing began the day before radiation (day −1) and continued until day 27. The test material utilized was an Inflabloc® pharmaceutical preparation, which, for the present example, comprised a complex of DHEA and cyclodextrin.
Starting on Day 6 and continuing every second day thereafter (days 8, 10, 12, 14, 16, 18, 20, 22, 24, 26, & 28), each animal was evaluated for mucositis scoring.
Mucositis Scoring. Parameters measured were the mucositis score, weight change and survival. For the evaluation of mucositis, the animals were anesthetized with inhalation anesthetics, and the left pouch everted. Mucositis was scored visually by comparison to a validated photographic scale, ranging from 0 for normal, to 5 for severe ulceration (clinical scoring).
A score of 1-2 is considered to represent a mild stage of the disease, whereas a score of 3-5 is considered to indicate moderate to severe mucositis. Following visual scoring, a photograph was taken of each animal's mucosa using a standardized technique. At the conclusion of the experiment, all film was developed and the photographs randomly numbered. At least two independent trained observers graded the photographs in blinded fashion using the above-described scale (blinded scoring).
The effect on mucositis of each drug treatment compared to placebo was assessed according to these parameters: the difference in the number of days hamsters in each group have severe (score 3) mucositis and the rank sum differences in daily mucositis scores. On each evaluation day, the number of animals with a blinded mucositis score of 3 in each drug treatment group, was compared to the control group. Differences were analyzed on a cumulative basis. For each evaluation day the scores of the control group were compared to those of the placebo group and vehicle group.
Mucositis Induction. Mucositis was induced using a standardized acute radiation protocol using a single dose of radiation (40 Gy/dose) on Day 0.

Test [1] concerns TNBS-induced colonic damage. In kind it is in vivo, Male Wistar rats. The procedure: In this Example, the effects of DHEA were evaluated in the TNBS model (see, e.g., Boughton-Smith et al., 1988; Morris et al., 1989; Reuter et al., 1996) at a defined oral dose administered twice a day by gavage, using a low intracolonic concentration of TNBS (10 mg). This challenge dose of TNBS is known to generate reproducible yet not unduly severe mucosal injury in the colon, as determined 3 days after instillation. In this current investigation, colonic macroscopic injury has been assessed. In addition to DHEA, the effect of a single daily low oral dose of dexamethasone, which has a broad profile of anti-inflammatory actions, was also evaluated in this model.
Male Wistar rats (220-300 g) were randomised into groups before commencement of the study. On day 0, the rats were transiently anaesthetised with ether and TNBS (10 mg in 0.25 ml of 50% ethanol) was instilled into the colon using a soft plastic catheter inserted in the rat rectum. The rats were allowed to recover with free access to food and drinking water. At the end of the Experiment, 72 h after TNBS administration (i.e. on the morning of day 3), the distal colon was dissected, photographed and stored appropriately for subsequent analyses. Macroscopic scoring of distal 8 cm of colon was measured as the primary efficacy parameter. In addition, the weight of the colonic segment was assessed as an indirect and non-specific marker of oedema, and the body weight of the animals was determined each day of the study.
The groups (n=8-12) for study with TNBS challenge were: (a) saline control administered in 0.5 ml p.o. per rat, b.i.d; (b) DHEA (50 mg per rat, b.i.d); (c) dexamethasone (0.3 mg/kg, oral, once daily); (d) control non-challenged with TNBS and non-drug-treated (received only salineb.i.d.). The DHEA was administered orally, twice daily for 48 h before TNBS administration, on Day 0 with TNBS administration and on Day 1 and 2. The DHEA was administered as a solid bicarbonate composite providing high bioavailability. Tissues were removed 72 h after TNBS administration (Day 3). Saline treated animals on the final day were 95.6+/−1.7% of mean starting body weight. Similarly, DHEA-treated animals were 95.4+/−1.1% of their mean starting body weight. Weight loss in the Dexamethasone treatment group was significant at 84.5+/−1.3% of starting weight.

As to `C[C@]12CC[C@H](O)CC1=CC[C@@H]1[C@@H]2CC[C@]2(C)C(=O)CC[C@@H]12` [DHEA, (3β)-3-hydroxyandrost-5-en-17-one], the “weight change following irradiation” value in the test on oral mucositis (25 mg/kg/day ip) is reported as “weight gain patterns that closely corresponded to those observed in the control group”; in the test on oral mucositis (50 mg/kg/day ip), “weight gain patterns that closely corresponded to those observed in the control group”; in the test with oral mucositis (250 mg/kg/day p.o.) it was “no pattern of weight loss”; in the test with oral mucositis (500 mg/kg/day p.o.), “no pattern of weight loss”. For the same molecule, the “daily mucositis scores vs saline control” value in the test on oral mucositis (50 mg/kg i.p.) and in the test on oral mucositis (500 mg/kg/day oral) was “significantly lower than those in the saline control group” each time. Besides, in test [1] (DHEA 50 mg per rat b.i.d. oral, solid bicarbonate composite, TNBS 10 mg, day 3), the “body weight on the final day, % of mean starting body weight” value is given as 95.4+/−1.1%. The “area of colonic injury, % of total colonic area of the segment” value in test [1] (DHEA 50 mg per rat b.i.d. oral, 72 h after TNBS challenge, TNBS control 48±2%) is given as 31+/−3%. Also, the “reduction in the area of colonic injury” value in test [1] (DHEA 50 mg per rat b.i.d. oral, vs TNBS control, P<0.001) is 40% and ~40%. Besides, the “colon weight of the standard segment (index of inflammatory oedema)” value in test [1] (DHEA 50 mg per rat b.i.d. oral, vs saline + TNBS, end of study) is given as “significantly (P<0.001) reduced”.

For the molecule `C[C@@H]1C[C@H]2[C@@H]3CCC4=CC(=O)C=C[C@]4(C)[C@@]3(F)[C@@H](O)C[C@]2(C)[C@@]1(O)C(=O)CO` [dexamethasone], in test [1] (dexamethasone 0.3 mg/kg once a day oral, 72 h after TNBS challenge, n=8, TNBS control 48±2%), the “area of colonic injury, % of the mucosal area” value came to 41±5%.

(Values after patent US20040121991A1, “Dehydroepiandrosterone (DHEA) congeners for prevention and/or treatment of ulcers” (priority 2002, published 2004).)
